Among the data in patent US7674795B2, “Fluorene derivatives, composition containing said derivatives and the use thereof” (Aventis Pharma SA, priority 2005, dated 2010) are IC50 values, retold here.

Counter-ions that a name gives are not always drawn.

Sequence of Hsp82 (P02829 whole entry): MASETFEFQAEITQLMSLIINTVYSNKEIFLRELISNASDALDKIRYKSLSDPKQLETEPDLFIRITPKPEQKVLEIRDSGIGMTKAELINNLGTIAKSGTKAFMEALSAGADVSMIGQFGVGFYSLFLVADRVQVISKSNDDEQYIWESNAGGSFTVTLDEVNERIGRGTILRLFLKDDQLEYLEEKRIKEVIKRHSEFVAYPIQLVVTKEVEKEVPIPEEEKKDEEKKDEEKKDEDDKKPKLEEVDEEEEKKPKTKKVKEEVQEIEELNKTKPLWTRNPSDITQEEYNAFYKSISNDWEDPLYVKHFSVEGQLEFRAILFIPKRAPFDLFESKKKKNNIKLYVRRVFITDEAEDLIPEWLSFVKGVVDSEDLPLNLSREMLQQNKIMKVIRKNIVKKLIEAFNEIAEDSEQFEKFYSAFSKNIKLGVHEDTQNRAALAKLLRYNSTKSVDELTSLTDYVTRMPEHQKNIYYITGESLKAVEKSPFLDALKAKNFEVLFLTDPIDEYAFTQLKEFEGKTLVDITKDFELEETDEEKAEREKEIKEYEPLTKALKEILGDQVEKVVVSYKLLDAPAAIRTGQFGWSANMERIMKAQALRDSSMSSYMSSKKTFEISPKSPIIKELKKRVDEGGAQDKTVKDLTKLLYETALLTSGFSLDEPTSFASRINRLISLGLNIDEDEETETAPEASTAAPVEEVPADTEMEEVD

The first assay has as its target Hsp82 (Saccharomyces cerevisiae, UniProt P02829). Description: PK/LDH enzyme coupling test of the ATPase activity of Hsp82 (NADH decrease at 340 nm). Particulars: 1 μM Hsp82, 250 μM ATP, 37° C., pyruvate kinase/lactate dehydrogenase coupling, read-out: Hsp82 ATPase IC50. The format is biochemical. An excerpt: The formation of ADP due to the ATPase activity of Hsp82 was utilized for developing another method of evaluating the enzymatic activity of this enzyme by application of an enzyme coupling system employing pyruvate kinase (PK) and lactate dehydrogenase (LDH). In this spectrophotometric method of the kinetic type, the PK catalyses the formation of ATP and of pyruvate starting from phosphoenol-pyruvate (PEP) and the ADP produced by HSP82. The pyruvate that formed, an LDH substrate, is then converted to lactate in the presence of NADH. In this case, the decrease in the concentration of NADH, measured by the decrease in absorbance at wavelength of 340 nm, is proportional to the concentration of ADP produced by HSP82. […] This mixture is preincubated at 37° C. for 30 min before adding 3.77 units of LDH and 3.77 units of PK. The reaction is started by adding the product to be evaluated, in variable concentrations, and of Hsp82, at a concentration of 1 μM. The enzymatic activity of Hsp82 is then measured continuously in a microplate reader at 37° C., at wavelength of 340 nm. The initial reaction rate is found by measuring the slope of the tangent at the origin of the recorded curve. The enzymatic activity is expressed as μM of ADP formed per minute. The effect of the various products tested is expressed as percentage of inhibition of ATPase activity, using the following codes: • A: […]
`ON=C1c2ccccc2-c2c1cccc2-c1nc2cnccc2[nH]1` (mixture of isomers) [Example 5, 4-(3H-imidazo[4,5-c]pyridin-2-yl)-fluoren-9-one oxime (Z, E)]: the IC50 – broadly, the concentration needed to halve the response being measured – lay in the range of 1 to 10 µM.

As to `c1ccc(CNN=C2c3ccccc3-c3c2cccc3-c2nc3cnccc3[nH]2)cc1` (mixture of isomers) [Example 8, N-benzyl-N′-[4-(1H-imidazo[4,5-c]pyridin-2-yl)-fluoren-9-ylidene]-hydrazine, 55/45 mixture of E and Z isomers], the IC50 was in the range of 1 to 10 µM.

For `NN=C1c2ccccc2-c2c1cccc2-c1nc2cnccc2[nH]1` (mixture of isomers) [Example 9, N-[4-(1H-imidazo[4,5-c]pyridin-2-yl)-fluoren-9-ylidene]-hydrazine, 60/40 mixture of E and Z isomers], the half-inhibitory concentration (IC50) lay in the range of 1 to 10 µM.

Regarding `c1cncc(CON=C2c3ccccc3-c3c2cccc3-c2nc3cnccc3[nH]2)c1` (mixture of isomers) [Example 11, O-(pyridin-3-yl)methyl 4-(3H-imidazo[4,5-c]pyridin-2-yl)-fluoren-9-one oxime (Z, E)], the IC50 fell in the range of 1 to 10 µM.

Take `OC=C1c2ccccc2-c2c1cccc2-c1nc2cnccc2[nH]1` (mixture of isomers) [Example 13, [4-(1H-imidazo[4,5-c]pyridin-2-yl)-fluoren-(9)-ylidene]-methanol, equimolecular mixture of the Z and E isomers]: the half-maximal inhibitory concentration (IC50) was in the range of 10 to 100 µM.

Consider `O=C(C=C1c2ccccc2-c2c1cccc2-c1nc2cnccc2[nH]1)Nc1cccnc1` (mixture of isomers) [Example 17, 2-[4-(3H-imidazo[4,5-c]pyridin-2-yl)-fluoren-(9E,Z)-ylidene]-N-pyridin-3-yl-acetamide], for which the concentration for half-maximal inhibition (IC50) is 1 to 10 µM.

Take `NC(=O)[C@H](N)CC(=O)NC1c2ccccc2-c2c(-c3nc4cnccc4[nH]3)cccc21` (mixture of isomers) [Example 62, (R)-2-amino-N4-[4-(3H-imidazo[4,5-c]pyridin-2-yl)-9H-fluoren-9(R,S)-yl]-succinamide]: the IC50 was in the range of 1 to 10 µM.

In the case of `O=C(NCc1ccc(Cl)nc1)C1c2ccccc2-c2c(-c3nc4cnccc4[nH]3)cccc21` (racemic) [Example 2, (6-chloropyridin-3-ylmethyl)-amide of 4-(1H-imidazo[4,5-c]pyridin-2-yl)-9H-fluorene-9(R,S)-carboxylic acid], the IC50 fell in the range of 10 to 100 µM.

For the molecule `OC1c2ccccc2-c2c(-c3nc4cnccc4[nH]3)cccc21` (racemic) [Example 3, 4-(3H-imidazo[4,5-c]pyridin-2-yl)-9H-fluoren-9(R,S)-ol], the concentration for half-maximal inhibition (IC50) lay within 10 to 100 µM.

As for `O=C(NCc1ccncc1)C1c2ccccc2-c2c(-c3nc4cnccc4[nH]3)cccc21` (racemic) [Example 4, hydrochloride of the (pyridin-4-ylmethyl)-amide of 4-(3H-imidazo[4,5-c]pyridin-2-yl)-9H-fluorene-9(R,S)-carboxylic acid], the concentration for half-maximal inhibition (IC50) was 10 to 100 µM.

As for `NC1c2ccccc2-c2c(-c3nc4cnccc4[nH]3)cccc21` (racemic) [Example 6, 4-(3H-imidazo[4,5-c]pyridin-2-yl)-9H-fluorene-9(R,S)-amine], the IC50 was 10 to 100 µM.

With `FC1c2ccccc2-c2c(-c3nc4cnccc4[nH]3)cccc21` (racemic) [Example 10, 2-[9(R,S)-fluoro-9H-fluoren-4-yl]-1H-imidazo[4,5-c]pyridine], the IC50 is 1 to 10 µM.

Consider `O=CNC1c2ccccc2-c2c(-c3nc4cnccc4[nH]3)cccc21` (racemic) [Example 12, N-[4-(3H-imidazo[4,5-c]pyridin-2-yl)-9H-fluoren-9(R,S)-yl]-formamide], for which the 50% inhibitory concentration (IC50) lay in the range of 10 to 100 µM.

Consider `c1ccc(CCNC2c3ccccc3-c3c(-c4nc5cnccc5[nH]4)cccc32)cc1` (racemic) [Example 16, N-[4-(3H-imidazo[4,5-c]pyridin-2-yl)-9H-fluoren-9(R,S)-yl]-phenethyl-amine], for which the concentration for half-maximal inhibition (IC50) is 10 to 100 µM.

As for `c1ccc2c(c1)-c1c(-c3nc4cnccc4[nH]3)cccc1C2NCc1ccc2[nH]ccc2c1` (racemic) [Example 18, N-[4-(3H-imidazo[4,5-c]pyridin-2-yl)-9H-fluoren-9(R,S)-yl]-(1H-indol-5-ylmethyl)-amine], the IC50 was in the range of 10 to 100 µM.

Regarding `CCOC(=O)NC1c2ccccc2-c2c(-c3nc4cnccc4[nH]3)cccc21` (racemic) [Example 20, ethyl ester of [4-(3H-imidazo[4,5-c]pyridin-2-yl)-9H-fluoren-9(R,S)-yl]-carbamoic acid], the IC50 lay in the range of 1 to 10 µM.

As to `O=C(Cc1cccnc1)NC1c2ccccc2-c2c(-c3nc4cnccc4[nH]3)cccc21` (racemic) [Example 21, N-[4-(3H-imidazo[4,5-c]pyridin-2-yl)-9H-fluoren-9(R,S)-yl]-2-(pyridin-3-yl)-acetamide], the IC50 is 1 to 10 µM.

`c1ccc2c(c1)-c1c(-c3nc4cnccc4[nH]3)cccc1C2NCc1ccc2cc[nH]c2c1` (racemic) [Example 22, N-[4-(3H-imidazo[4,5-c]pyridin-2-yl)-9H-fluoren-9(R,S)-yl]-(1H-indol-6-ylmethyl)-amine]: the IC50 lay in the range of 10 to 100 µM.

On to `Nc1nc(CC(=O)NC2c3ccccc3-c3c(-c4nc5cnccc5[nH]4)cccc32)cs1` (racemic) [Example 24, trifluoroacetate of 2-(2-amino-thiazol-4-yl)-N-[4-(3H-imidazo[4,5-c]pyridin-2-yl)-9H-fluoren-9(R,S)-yl]-acetamide], for which the IC50 was 1 to 10 µM.

For `O=C(Cc1ccc(Cl)nc1)NC1c2ccccc2-c2c(-c3nc4cnccc4[nH]3)cccc21` (racemic) [Example 25, 2-(6-chloropyridin-3-yl)-N-[4-(3H-imidazo[4,5-c]pyridin-2-yl)-9H-fluoren-9(R,S)-yl]-acetamide], the concentration for half-maximal inhibition (IC50) was in the range of 1 to 10 µM.

On to `c1ccc2c(c1)-c1c(-c3nc4ccncc4[nH]3)cccc1C2NCc1cccc2ncccc12` (racemic) [Example 26, trifluoroacetate of N-[4-(3H-imidazo[4,5-c]pyridin-2-yl)-9H-fluoren-9(R,S)-yl]-quinolin-5-yl-methylamine], for which the IC50 is 1 to 10 µM.

`COc1ccc(CC(=O)NC2c3ccccc3-c3c(-c4nc5cnccc5[nH]4)cccc32)cc1` (racemic) [Example 27, N-[4-(3H-imidazo[4,5-c]pyridin-2-yl)-9H-fluoren-9(R,S)-yl]-2-(4-methoxy-phenyl)-acetamide]: the half-inhibitory concentration (IC50) was 1 to 10 µM.

Turning to `O=C(O)C1c2ccccc2-c2c(-c3nc4cnccc4[nH]3)cccc21` (racemic) [Example 29, hydrochloride of 4-(1H-imidazo[4,5-c]pyridin-2-yl)-9H-fluorene-9(R,S)-carboxylic acid], the IC50 is 10 to 100 µM.

With `O=C(NC1c2ccccc2-c2c(-c3nc4ccncc4[nH]3)cccc21)c1cc(O)nc2ccccc12` (racemic) [Example 31, [4-(3H-imidazo[4,5-c]pyridin-2-yl)-9H-fluoren-9(R,S)-yl]amide of 2-hydroxy-quinoline-4-carboxylic acid], the 50% inhibitory concentration (IC50) lay in the range of 1 to 10 µM.

The same assay, now with this note: Hsp82 ATPase IC50 μM, 1 μM Hsp82, 250 μM ATP, 37° C., pyruvate kinase/lactate dehydrogenase coupling.
Regarding `NC(=O)NC1c2ccccc2-c2c(-c3nc4ccncc4[nH]3)cccc21` (racemic) [Example 28, [4-(3H-imidazo[4,5-c]pyridin-2-yl)-9H-fluoren-9(R,S)-yl]-urea trifluoroacetate], the 50% inhibitory concentration (IC50) lay in the range of 10 to 100 µM.
